Measurements: publication PMC8213057, “Targeting ALK2: An Open Science Approach to Developing Therapeutics for the Treatment of Diffuse Intrinsic Pontine Glioma” (Journal of Medicinal Chemistry, 2020)

Key:
ALK2/ACVR1 = biological target: T1, ALK2/ACVR1 (Homo sapiens, UniProt Q04771); assay: biochemical; settings: Run 1, Run 2; for % enzyme activity: 1 μM; for remaining activity at 1 µM: read-out: % enzyme activity, 1 μM
T1 construct: purchased Reaction Biology Corporation
T1 sequence (Q04771 21-509): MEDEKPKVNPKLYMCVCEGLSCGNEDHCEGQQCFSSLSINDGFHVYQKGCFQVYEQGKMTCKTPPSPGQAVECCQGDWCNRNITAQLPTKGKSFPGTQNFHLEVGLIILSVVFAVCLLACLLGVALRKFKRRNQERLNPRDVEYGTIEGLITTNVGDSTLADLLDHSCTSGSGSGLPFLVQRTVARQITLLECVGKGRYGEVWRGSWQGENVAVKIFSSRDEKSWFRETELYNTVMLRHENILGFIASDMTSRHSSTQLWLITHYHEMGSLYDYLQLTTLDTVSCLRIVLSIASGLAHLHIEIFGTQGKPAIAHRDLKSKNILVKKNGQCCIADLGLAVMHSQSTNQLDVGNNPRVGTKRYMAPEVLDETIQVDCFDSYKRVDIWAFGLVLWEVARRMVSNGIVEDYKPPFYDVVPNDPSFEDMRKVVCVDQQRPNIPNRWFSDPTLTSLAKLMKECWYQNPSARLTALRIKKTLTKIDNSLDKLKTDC

c-MET = c-MET (Homo sapiens, UniProt P08581); settings: 1 μM; Run 1, Run 2
DYRK4 = biological target: T2, DYRK4 (Homo sapiens, UniProt Q9NR20); settings: 1 μM; Run 1, Run 2
T2 sequence (Q9NR20 1-520): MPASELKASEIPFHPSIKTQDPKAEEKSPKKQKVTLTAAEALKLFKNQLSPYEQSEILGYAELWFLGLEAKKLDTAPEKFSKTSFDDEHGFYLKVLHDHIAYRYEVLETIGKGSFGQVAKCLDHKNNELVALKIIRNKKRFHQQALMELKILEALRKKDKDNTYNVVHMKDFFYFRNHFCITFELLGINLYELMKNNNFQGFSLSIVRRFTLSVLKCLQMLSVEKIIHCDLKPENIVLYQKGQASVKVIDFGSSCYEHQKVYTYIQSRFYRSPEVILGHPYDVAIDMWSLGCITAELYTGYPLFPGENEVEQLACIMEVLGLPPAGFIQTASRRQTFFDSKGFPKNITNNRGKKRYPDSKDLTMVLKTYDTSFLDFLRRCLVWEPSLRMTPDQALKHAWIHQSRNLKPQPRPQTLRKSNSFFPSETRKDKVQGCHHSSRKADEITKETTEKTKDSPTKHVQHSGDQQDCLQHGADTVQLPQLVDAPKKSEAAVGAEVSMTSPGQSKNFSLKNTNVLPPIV

FAK/PTK2 = FAK/PTK2 (Homo sapiens, UniProt Q05397); settings: 1 μM; Run 1, Run 2
Sequence of FAK/PTK2 (Q05397 whole entry): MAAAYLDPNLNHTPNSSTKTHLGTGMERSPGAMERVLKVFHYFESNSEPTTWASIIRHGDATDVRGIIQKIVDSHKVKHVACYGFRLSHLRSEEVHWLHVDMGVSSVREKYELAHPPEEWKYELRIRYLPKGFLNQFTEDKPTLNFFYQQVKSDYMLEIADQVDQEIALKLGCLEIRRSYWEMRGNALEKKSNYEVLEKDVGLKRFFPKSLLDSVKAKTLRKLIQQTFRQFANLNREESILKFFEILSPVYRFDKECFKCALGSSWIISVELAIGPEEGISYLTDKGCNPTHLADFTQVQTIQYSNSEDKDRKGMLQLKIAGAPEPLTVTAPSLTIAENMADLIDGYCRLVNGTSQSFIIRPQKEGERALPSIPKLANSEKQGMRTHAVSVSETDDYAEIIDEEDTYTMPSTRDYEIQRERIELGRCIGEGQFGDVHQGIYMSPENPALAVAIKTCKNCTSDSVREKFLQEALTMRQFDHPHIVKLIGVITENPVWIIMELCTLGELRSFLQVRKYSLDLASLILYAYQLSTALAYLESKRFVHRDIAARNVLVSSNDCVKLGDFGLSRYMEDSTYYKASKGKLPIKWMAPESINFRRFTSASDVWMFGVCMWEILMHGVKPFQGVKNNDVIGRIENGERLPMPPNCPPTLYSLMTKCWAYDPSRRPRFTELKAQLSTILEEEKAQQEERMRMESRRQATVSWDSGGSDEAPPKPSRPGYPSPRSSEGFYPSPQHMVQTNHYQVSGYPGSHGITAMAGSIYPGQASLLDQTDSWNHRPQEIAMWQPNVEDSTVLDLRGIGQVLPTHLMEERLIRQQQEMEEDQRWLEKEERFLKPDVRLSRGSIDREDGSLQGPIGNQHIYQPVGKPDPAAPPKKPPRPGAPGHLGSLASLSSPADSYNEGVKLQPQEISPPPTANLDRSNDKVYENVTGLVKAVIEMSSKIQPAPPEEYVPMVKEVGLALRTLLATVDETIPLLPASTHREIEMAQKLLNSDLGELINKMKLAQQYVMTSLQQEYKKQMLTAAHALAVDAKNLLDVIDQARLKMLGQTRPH

MEK2 = MEK2 (Homo sapiens, UniProt P36507); settings: 1 μM; Run 1, Run 2
Sequence of MEK2 (P36507 whole entry): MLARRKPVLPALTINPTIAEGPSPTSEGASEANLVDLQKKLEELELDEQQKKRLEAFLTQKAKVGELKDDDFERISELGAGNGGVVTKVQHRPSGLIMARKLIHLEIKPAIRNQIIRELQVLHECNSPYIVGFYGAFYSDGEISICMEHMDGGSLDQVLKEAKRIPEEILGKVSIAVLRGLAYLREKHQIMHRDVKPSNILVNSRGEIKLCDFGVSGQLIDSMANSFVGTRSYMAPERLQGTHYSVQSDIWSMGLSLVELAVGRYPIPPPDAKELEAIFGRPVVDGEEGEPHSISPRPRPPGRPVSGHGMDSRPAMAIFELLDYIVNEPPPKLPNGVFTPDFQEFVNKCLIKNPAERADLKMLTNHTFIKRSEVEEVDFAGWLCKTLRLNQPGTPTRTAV

MEKK2 = biological target: T3, MEKK2 (Homo sapiens, UniProt Q9Y2U5); settings: 1 μM; Run 1, Run 2
T3 sequence (Q9Y2U5 1-619): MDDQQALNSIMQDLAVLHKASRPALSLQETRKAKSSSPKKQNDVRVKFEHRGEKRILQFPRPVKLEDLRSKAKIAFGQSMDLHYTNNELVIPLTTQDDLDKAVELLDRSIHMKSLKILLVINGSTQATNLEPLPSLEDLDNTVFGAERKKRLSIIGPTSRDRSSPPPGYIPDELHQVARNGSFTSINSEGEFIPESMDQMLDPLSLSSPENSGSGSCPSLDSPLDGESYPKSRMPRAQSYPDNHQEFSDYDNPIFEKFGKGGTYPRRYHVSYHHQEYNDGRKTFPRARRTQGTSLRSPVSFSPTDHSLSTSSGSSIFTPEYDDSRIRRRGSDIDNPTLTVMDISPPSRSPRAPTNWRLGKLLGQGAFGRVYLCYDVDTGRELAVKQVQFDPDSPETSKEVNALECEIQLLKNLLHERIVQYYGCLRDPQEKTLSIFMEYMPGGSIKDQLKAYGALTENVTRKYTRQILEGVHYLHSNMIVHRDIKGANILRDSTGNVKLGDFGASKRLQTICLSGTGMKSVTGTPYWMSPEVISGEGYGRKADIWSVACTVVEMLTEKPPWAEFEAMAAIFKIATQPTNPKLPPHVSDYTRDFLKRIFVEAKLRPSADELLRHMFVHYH

PLK3 = PLK3 (Homo sapiens, UniProt Q9H4B4); settings: 1 μM; Run 1, Run 2
Sequence of PLK3 (Q9H4B4 whole entry): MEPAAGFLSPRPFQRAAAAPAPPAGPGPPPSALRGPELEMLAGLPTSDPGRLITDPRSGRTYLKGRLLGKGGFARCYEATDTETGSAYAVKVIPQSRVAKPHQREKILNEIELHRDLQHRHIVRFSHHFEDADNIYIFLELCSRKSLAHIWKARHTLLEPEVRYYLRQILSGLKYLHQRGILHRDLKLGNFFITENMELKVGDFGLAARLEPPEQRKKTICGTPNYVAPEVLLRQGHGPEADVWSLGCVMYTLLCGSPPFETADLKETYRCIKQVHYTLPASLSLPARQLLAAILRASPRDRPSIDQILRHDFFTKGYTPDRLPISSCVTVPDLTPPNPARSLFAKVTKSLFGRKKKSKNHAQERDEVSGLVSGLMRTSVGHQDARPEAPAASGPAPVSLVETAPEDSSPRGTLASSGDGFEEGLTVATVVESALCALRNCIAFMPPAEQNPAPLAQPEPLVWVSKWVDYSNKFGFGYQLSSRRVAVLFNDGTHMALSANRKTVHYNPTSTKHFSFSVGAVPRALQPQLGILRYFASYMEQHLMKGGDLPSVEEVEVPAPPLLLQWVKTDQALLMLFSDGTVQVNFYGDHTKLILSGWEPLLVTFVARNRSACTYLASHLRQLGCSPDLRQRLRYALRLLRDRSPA

DMPK2 = DMPK2 (Homo sapiens, UniProt Q6DT37); assay: biochemical; settings: read-out: % enzyme activity, 1 μM; Run 1, Run 2
HIPK4 = biological target: T4, HIPK4 (Homo sapiens, UniProt Q8NE63); assay: biochemical; settings: read-out: % enzyme activity, 1 μM; Run 1, Run 2
T4 sequence (Q8NE63 1-616): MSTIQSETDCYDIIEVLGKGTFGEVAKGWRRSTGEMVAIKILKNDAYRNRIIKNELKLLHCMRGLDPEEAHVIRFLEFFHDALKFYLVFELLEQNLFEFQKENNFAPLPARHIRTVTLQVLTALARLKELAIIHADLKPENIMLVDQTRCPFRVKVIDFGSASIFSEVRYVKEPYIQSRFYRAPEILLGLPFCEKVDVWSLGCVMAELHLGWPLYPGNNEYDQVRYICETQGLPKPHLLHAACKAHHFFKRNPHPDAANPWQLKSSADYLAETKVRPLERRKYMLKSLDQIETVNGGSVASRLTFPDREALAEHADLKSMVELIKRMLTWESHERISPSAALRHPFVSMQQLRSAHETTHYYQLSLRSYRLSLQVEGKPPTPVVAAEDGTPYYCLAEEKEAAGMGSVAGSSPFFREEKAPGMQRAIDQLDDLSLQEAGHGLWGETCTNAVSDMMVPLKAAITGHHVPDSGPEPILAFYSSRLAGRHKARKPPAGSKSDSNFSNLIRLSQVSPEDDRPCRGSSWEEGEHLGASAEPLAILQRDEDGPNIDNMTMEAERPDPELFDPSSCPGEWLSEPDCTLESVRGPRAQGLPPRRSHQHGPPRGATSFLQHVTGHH

MYO3A = MYO3A (Homo sapiens, UniProt Q8NEV4); assay: biochemical; settings: read-out: % enzyme activity, 1 μM; Run 1, Run 2
Sequence of MYO3A (Q8NEV4 whole entry): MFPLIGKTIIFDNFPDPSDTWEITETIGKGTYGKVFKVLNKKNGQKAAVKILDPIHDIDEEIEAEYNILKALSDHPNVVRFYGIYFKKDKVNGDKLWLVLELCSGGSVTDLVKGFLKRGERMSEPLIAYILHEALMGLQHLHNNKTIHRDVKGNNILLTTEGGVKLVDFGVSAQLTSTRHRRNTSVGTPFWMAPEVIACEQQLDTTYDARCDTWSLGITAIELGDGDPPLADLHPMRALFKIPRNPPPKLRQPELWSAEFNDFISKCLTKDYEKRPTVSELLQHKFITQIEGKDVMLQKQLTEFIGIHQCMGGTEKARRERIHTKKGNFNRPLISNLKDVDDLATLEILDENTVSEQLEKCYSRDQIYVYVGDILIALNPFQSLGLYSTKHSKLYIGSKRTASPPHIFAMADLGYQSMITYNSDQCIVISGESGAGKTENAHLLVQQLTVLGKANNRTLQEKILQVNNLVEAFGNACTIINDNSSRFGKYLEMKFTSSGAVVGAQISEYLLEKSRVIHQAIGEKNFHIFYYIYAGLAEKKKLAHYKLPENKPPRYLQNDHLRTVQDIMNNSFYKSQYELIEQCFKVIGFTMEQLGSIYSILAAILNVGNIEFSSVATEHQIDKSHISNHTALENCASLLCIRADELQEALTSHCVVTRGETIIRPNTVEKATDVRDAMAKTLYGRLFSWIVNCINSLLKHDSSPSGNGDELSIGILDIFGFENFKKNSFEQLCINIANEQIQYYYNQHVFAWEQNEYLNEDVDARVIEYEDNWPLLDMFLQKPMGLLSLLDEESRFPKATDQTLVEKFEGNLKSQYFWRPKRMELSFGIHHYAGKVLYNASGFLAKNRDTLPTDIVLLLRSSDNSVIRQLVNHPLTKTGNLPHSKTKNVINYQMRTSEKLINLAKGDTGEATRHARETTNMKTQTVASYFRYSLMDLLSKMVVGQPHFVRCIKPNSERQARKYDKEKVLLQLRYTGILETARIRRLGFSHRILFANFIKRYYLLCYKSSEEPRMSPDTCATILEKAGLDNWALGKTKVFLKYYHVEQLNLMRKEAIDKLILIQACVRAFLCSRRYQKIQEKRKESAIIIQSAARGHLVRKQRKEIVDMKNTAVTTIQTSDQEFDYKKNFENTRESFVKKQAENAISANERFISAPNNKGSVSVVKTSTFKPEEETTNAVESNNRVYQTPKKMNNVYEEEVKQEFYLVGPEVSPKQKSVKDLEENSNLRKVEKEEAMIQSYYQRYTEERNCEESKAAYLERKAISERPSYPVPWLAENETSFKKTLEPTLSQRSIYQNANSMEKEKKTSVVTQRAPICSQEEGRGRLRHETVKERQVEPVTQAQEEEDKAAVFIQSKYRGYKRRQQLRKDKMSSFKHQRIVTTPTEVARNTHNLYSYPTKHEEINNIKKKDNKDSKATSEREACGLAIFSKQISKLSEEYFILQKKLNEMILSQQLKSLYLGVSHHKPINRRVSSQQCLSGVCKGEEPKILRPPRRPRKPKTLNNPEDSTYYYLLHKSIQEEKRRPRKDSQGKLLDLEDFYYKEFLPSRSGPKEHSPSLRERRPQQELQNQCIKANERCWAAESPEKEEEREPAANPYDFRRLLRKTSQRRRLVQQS

SSTK/TSSK6 = SSTK/TSSK6 (Homo sapiens, UniProt Q9BXA6); assay: biochemical; settings: read-out: % enzyme activity, 1 μM; Run 1, Run 2
Sequence of SSTK/TSSK6 (Q9BXA6 whole entry): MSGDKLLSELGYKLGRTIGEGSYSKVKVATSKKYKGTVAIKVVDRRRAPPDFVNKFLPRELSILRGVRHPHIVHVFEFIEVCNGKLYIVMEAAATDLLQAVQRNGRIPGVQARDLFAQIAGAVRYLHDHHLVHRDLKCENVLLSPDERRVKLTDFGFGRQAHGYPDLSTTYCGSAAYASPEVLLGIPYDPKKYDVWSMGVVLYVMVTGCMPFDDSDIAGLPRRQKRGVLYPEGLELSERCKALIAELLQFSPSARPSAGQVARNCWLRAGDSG

TTBK1 = TTBK1 (Homo sapiens, UniProt Q5TCY1); assay: biochemical; settings: read-out: % enzyme activity, 1 μM; Run 1, Run 2

SMILES | % enzyme activity (ALK2/ACVR1) [%] | remaining activity at 1 µM (ALK2/ACVR1) [%] | % enzyme activity (c-MET) [%] | % enzyme activity (DYRK4) [%] | % enzyme activity (FAK/PTK2) [%] | % enzyme activity (MEK2) [%] | % enzyme activity (MEKK2) [%] | % enzyme activity (PLK3) [%] | remaining activity at 1 µM (DMPK2) [%] | remaining activity at 1 µM (HIPK4) [%] | remaining activity at 1 µM (MYO3A) [%] | remaining activity at 1 µM (SSTK/TSSK6) [%] | remaining activity at 1 µM (TTBK1) [%]
COc1cc(-c2cncc(-c3ccc(N4C[C@@H](C)N(C)[C@@H](C)C4)cc3)c2C)cc(F)c1C(N)=O [Compound 26c, 2-Fluoro-6-methoxy-4-(4-methyl-5-(4-((3R,5S)-3,4,5-trimethylpiperazin-1-yl)phenyl)pyridin-3-yl)benzamide] | 11.70 | 13.7 | 106.76 | 100.24 | 97.12 | 91.58 | 100.62 | 94.47 | 87.5 | 101 | 94.7 | 98.2 | 99.4
COc1cc(-c2cncc(-c3ccc(N4CCN(C)CC4)cc3)c2C)cc(F)c1C(N)=O [Compound 26a, 2-Fluoro-6-methoxy-4-(4-methyl-5-(4-(4-methylpiperazin-1-yl)phenyl)pyridin-3-yl)benzamide] | 8.63 | 9.92 | 98.28 | 102.49 | 94.56 | 85.87 | 95.51 | 93.70 | 83.8 | 104 | 84 | 110 | 97.3
